What all share (type): cell-based
The target of one assay is T1, BRAF V600E (Homo sapiens, UniProt P15056, V600E).
T1 construct: endogenous C-terminal HiBiT fusion tag on BRAF V600E allele; endogenous in cells; host or cells: A375 clone 1F10 (CRISPR-Cas9 knock-in of the HiBiT tag; parental A375 from ATCC)
Nature of the assay: BRAF HiBiT degradation assay, C-terminal HiBiT-tagged BRAF V600E A375 cells (clone 1F10), Nano-Glo HiBiT Lytic assay. To be noted: for Dmax: A-375. In short, it runs like this:
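Steps: seed HiBiT-tagged A375 clone 1F10 cells; incubate 24 h, 37 °C, 5% CO2; add compound (11 half-log points from 1 μM, 0.2% DMSO); lyse with HiBiT detection reagent plus LgBiT for 10 min; read luminescence; fit % protein remaining against concentration.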
A general note: HiBiT is a short tag that completes a luciferase, so light tracks the accessible tagged protein.

The next assay deals with T2, BRAF G466V (Homo sapiens, UniProt P15056, G466V).
T2 construct: Horizon Discovery (HCT-116 BRAF−/− cells); host or cells: HCT-116 BRAF−/− cells, clone 8, lentiviral transduction
T2 sequence (P15056 whole entry G466V): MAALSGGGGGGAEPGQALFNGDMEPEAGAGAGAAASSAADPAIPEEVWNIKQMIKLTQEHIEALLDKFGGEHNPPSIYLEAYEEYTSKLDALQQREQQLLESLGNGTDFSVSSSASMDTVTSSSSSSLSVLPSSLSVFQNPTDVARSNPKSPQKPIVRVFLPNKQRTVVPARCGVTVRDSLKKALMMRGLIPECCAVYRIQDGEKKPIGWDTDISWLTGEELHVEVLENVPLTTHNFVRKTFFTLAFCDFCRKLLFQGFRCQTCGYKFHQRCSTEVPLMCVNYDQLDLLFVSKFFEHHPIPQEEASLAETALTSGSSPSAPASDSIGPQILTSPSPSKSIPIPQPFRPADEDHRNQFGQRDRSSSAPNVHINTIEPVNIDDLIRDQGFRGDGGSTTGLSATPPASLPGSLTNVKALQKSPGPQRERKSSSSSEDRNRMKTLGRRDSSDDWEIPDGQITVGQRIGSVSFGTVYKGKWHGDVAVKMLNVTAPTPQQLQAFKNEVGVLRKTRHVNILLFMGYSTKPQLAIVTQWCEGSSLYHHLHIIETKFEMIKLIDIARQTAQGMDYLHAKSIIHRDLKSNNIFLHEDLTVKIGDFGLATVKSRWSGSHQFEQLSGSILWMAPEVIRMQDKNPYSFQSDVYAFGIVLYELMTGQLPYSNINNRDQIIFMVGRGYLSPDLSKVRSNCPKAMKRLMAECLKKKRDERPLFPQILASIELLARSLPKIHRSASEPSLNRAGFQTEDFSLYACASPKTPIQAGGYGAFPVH
In words: BRAF HiBiT degradation assay, C-terminal HiBiT-tagged BRAF G466V overexpressed in HCT-116 BRAF−/− cells (clone 8), Nano-Glo HiBiT Lytic assay. In short, it runs like this:
(§1)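 We quantified degradation of the C-terminally HiBiT-tagged, overexpressed mutant by lytic luminescence, normalizing to DMSO-treated cells with wild-type HCT-116 background subtracted. Dose series ran from 1 μM to 0.01 nM at 0.2% DMSO. Observed Dmax is % degraded at maximal effect.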

In a further assay the target is T3, BRAF G469A (Homo sapiens, UniProt P15056, G469A).
T3 construct: Horizon Discovery (HCT-116 BRAF−/− cells); host or cells: HCT-116 BRAF−/− cells, clone 34, lentiviral transduction
T3 sequence (P15056 whole entry G469A): as the sequence (P15056 whole entry G466V) above, with V466G, G469A counted along it
Nature of the assay: BRAF HiBiT degradation assay, C-terminal HiBiT-tagged BRAF G469A overexpressed in HCT-116 BRAF−/− cells (clone 34), Nano-Glo HiBiT Lytic assay. In short, it runs like this:
as §1

The target in the next assay is T4, BRAF D594G (Homo sapiens, UniProt P15056, D594G).
T4 construct: Horizon Discovery (HCT-116 BRAF−/− cells); host or cells: HCT-116 BRAF−/− cells, clone 63, lentiviral transduction
T4 sequence (P15056 whole entry D594G): as the sequence (P15056 whole entry G466V) above, with V466G, D594G counted along it
In words: BRAF HiBiT degradation assay, C-terminal HiBiT-tagged BRAF D594G overexpressed in HCT-116 BRAF−/− cells (clone 63), Nano-Glo HiBiT Lytic assay. In short, it runs like this: as §1

The mark [1] stands for this setting: A375 (BRAF V600E, Class 1), DC50 at 50% degradation.
The mark [2] stands for this setting: A375 (BRAF V600E, Class 1), observed Dmax, % protein degraded relative to DMSO control.
[3] abbreviates: BRAF G466V (Class 3), HCT-116 BRAF−/− cells, DC50 at 50% degradation.
Setting [4] is: BRAF G466V (Class 3), HCT-116 BRAF−/− cells, observed Dmax relative to DMSO control.
Setting [5] is: BRAF G469A (Class 2), HCT-116 BRAF−/− cells, DC50 at 50% degradation.
[6] abbreviates: BRAF G469A (Class 2), HCT-116 BRAF−/− cells, observed Dmax relative to DMSO control.
Where [7] appears, read: BRAF D594G (Class 3), HCT-116 BRAF−/− cells, DC50 at 50% degradation.
The mark [8] stands for this setting: BRAF D594G (Class 3), HCT-116 BRAF−/− cells, observed Dmax relative to DMSO control.
Where [9] appears, read: A375 (BRAF V600E), DC50 at 50%: fitted conc. at Y=50.
Where [10] appears, read: A375 (BRAF V600E), percentage protein degraded at maximal compound effect relative to DMSO.
Setting [11] is: BRAF G466V, DC50 at 50%: fitted conc. at Y=50.
The mark [12] stands for this setting: HCT-116, BRAF G466V, percentage protein degraded at maximal compound effect relative to DMSO.
Where [13] appears, read: Class 2, BRAF G469A, DC50 at 50%: fitted conc. at Y=50.
Where [14] appears, read: HCT-116, Class 2, BRAF G469A, percentage protein degraded at maximal compound effect relative to DMSO.
The mark [15] stands for this setting: BRAF D594G, DC50 at 50%: fitted conc. at Y=50.
Setting [16] is: HCT-116, BRAF D594G, percentage protein degraded at maximal compound effect relative to DMSO.

T1 sequence (P15056 whole entry V600E, the tested form may be a part): as the sequence (P15056 whole entry G466V) above, with V466G, V600E counted along it

Turning to `C[C@@H]1CN(c2ccc(-n3cc(-c4cc(Cl)cc(NS(=O)(=O)N5CCCC5)c4F)c(-c4ccncc4)n3)c(F)c2)C[C@@H](C)N1CC1CCN(c2ccc(C3CCC(=O)NC3=O)cn2)CC1` (mixture of isomers) [Compound 382, N-(5-chloro-3-(1-(4-((3R,5R)-4-((1-(5-((RS)-2,6-dioxopiperidin-3-yl)pyridin-2-yl)piperidin-4-yl)methyl)-3,5-dimethylpiperazin-1-yl)-2-fluorophenyl)-3-(pyridin-4-yl)-1H-pyrazol-4-yl)-2-fluorophenyl)pyrrolidine-1-sulfonamide], the DC50 (as a rule, the midpoint of the concentration-degradation curve) on BRAF V600E (setting [1]) was < 10 nM; at BRAF G466V (setting [3]) it was < 10 nM; on BRAF G469A (setting [5]), 10 to 50 nM; at BRAF D594G (setting [7]), < 10 nM. Besides, the Dmax on BRAF V600E (setting [2]), on BRAF G466V (setting [4]), at BRAF G469A (setting [6]) and at BRAF D594G (setting [8]) was > 70% each time.

For the molecule `CCN(C)S(=O)(=O)Nc1cc(Cl)cc(-c2cn(-c3ccc(N4CCN(CC5CCN(c6ccc(C7CCC(=O)NC7=O)cn6)CC5)CC4)cn3)nc2-c2ccncc2)c1F` (racemic) [Compound 312, Rac-(3R)-3-(6-{4-[(4-{6-[4-(5-chloro-3-{[ethyl(methyl)sulfamoyl]amino}-2-fluorophenyl)-3-(pyridin-4-yl)-1H-pyrazol-1-yl]pyridin-3-yl}piperazin-1-yl)methyl]piperidin-1-yl}pyridin-3-yl)piperidine-2,6-dione], the DC50 at BRAF V600E (setting [1]), at BRAF G466V (setting [3]), on BRAF G469A (setting [5]) and on BRAF D594G (setting [7]) was < 10 nM each time. Moreover, the Dmax (commonly the greatest extent of degradation seen) is > 70% at BRAF V600E (setting [2]), > 70% at BRAF G466V (setting [4]), 30 to 70% at BRAF G469A (setting [6]) and > 70% at BRAF D594G (setting [8]).

`O=C1CC[C@H](c2ccc(N3CCC(CN4CCN(c5ccc(-n6cc(-c7cc(Cl)cc(NS(=O)(=O)C8CCCC8)c7F)c(-c7ccncc7)n6)cc5)CC4)CC3)nc2)C(=O)N1` [Compound 372, N-{5-chloro-3-[1-(4-{4-[(1-{5-[(3R)-2,6-dioxopiperidin-3-yl]pyridin-2-yl}piperidin-4-yl)methyl]piperazin-1-yl}phenyl)-3-(pyridin-4-yl)-1H-pyrazol-4-yl]-2-fluorophenyl}cyclopentanesulfonamide]: the DC50 on BRAF V600E (setting [1]) was < 10 nM; on BRAF G466V (setting [3]), 10 to 50 nM; on BRAF G469A (setting [5]) it was 10 to 50 nM; on BRAF D594G (setting [7]), < 10 nM. The Dmax on BRAF V600E (setting [2]), on BRAF G466V (setting [4]), on BRAF G469A (setting [6]) and at BRAF D594G (setting [8]) was > 70% in each case.

For the molecule `O=C1CC[C@H](c2ccc(N3CCC(CN4CCN(c5ccc(-n6cc(-c7cc(Cl)cc(NS(=O)(=O)C8CCCC8)c7F)c(-c7ccncc7)n6)cc5)CC4)CC3)cc2)C(=O)N1` [Compound 374, N-{5-chloro-3-[1-(4-{4-[(1-{4-[(3R)-2,6-dioxopiperidin-3-yl]phenyl}piperidin-4-yl)methyl]piperazin-1-yl}phenyl)-3-(pyridin-4-yl)-1H-pyrazol-4-yl]-2-fluorophenyl}cyclopentanesulfonamide], the DC50 at BRAF V600E (setting [1]) is < 10 nM; on BRAF G466V (setting [3]), 10 to 50 nM; at BRAF G469A (setting [5]) it was 10 to 50 nM; on BRAF D594G (setting [7]), 10 to 50 nM. In addition, the Dmax at BRAF V600E (setting [2]) was > 70%; at BRAF G466V (setting [4]), > 70%; on BRAF G469A (setting [6]) it was 30 to 70%; on BRAF D594G (setting [8]) it was 30 to 70%.

Take `CCN(C)S(=O)(=O)Nc1cc(Cl)cc(-c2cn(-c3ccc(N4CCN(CC5CCN(c6ccc([C@H]7CCC(=O)NC7=O)cn6)CC5)CC4)cc3)nc2-c2ccncc2)c1F` [Compound 309, (3R)-3-(6-{4-[(4-{4-[4-(5-chloro-3-{[ethyl(methyl)sulfamoyl]amino}-2-fluorophenyl)-3-(pyridin-4-yl)-1H-pyrazol-1-yl]phenyl}piperazin-1-yl)methyl]piperidin-1-yl}pyridin-3-yl)piperidine-2,6-dione]: the DC50 was < 10 nM at BRAF V600E (setting [1]), < 10 nM at BRAF G466V (setting [3]), 10 to 50 nM at BRAF G469A (setting [5]) and < 10 nM on BRAF D594G (setting [7]). Also, the Dmax at BRAF V600E (setting [2]) was > 70%; on BRAF G466V (setting [4]), > 70%; at BRAF G469A (setting [6]), > 70%; at BRAF D594G (setting [8]) it was 30 to 70%.

With `CCCS(=O)(=O)Nc1cccc(-c2nc(-c3ccc(C4CCN(C(=O)CC5CCN(c6ccc(C7CCC(=O)NC7=O)cn6)CC5)CC4)cc3)sc2-c2ccnc(N)n2)c1F` (racemic) [Compound 207, Rac-N-{3-[5-(2-aminopyrimidin-4-yl)-2-(4-{1-[2-(1-{5-[(3R)-2,6-dioxopiperidin-3-yl]pyridin-2-yl}piperidin-4-yl)acetyl]piperidin-4-yl}phenyl)-1,3-thiazol-4-yl]-2-fluorophenyl}propane-1-sulfonamide], the DC50 at BRAF V600E (setting [9]) was 10 to 50 nM; on BRAF G466V (setting [11]), > 500 nM; on BRAF G469A (setting [13]) it was > 500 nM; at BRAF D594G (setting [15]), > 500 nM. Further, the Dmax was > 70% on BRAF V600E (setting [10]), 30 to 70% at BRAF G466V (setting [12]), 30 to 70% at BRAF G469A (setting [14]) and 30 to 70% at BRAF D594G (setting [16]).

In the case of `C[C@@H]1CN(c2ccc(-n3cc(-c4cc(Cl)cc(NS(=O)(=O)N5CCCC5)c4F)c(-c4ccncc4)n3)nc2)CCN1CC1CCN(c2ccc([C@H]3CCC(=O)NC3=O)cn2)CC1` [Compound 325, N-[5-chloro-3-(1-{5-[(3R)-4-[(1-{5-[(3R)-2,6-dioxopiperidin-3-yl]pyridin-2-yl}piperidin-4-yl)methyl]-3-methylpiperazin-1-yl]pyridin-2-yl}-3-(pyridin-4-yl)-1H-pyrazol-4-yl)-2-fluorophenyl]pyrrolidine-1-sulfonamide], the DC50 is < 10 nM on BRAF V600E (setting [1]), < 10 nM at BRAF G466V (setting [3]), 10 to 50 nM on BRAF G469A (setting [5]) and < 10 nM on BRAF D594G (setting [7]). Also, the Dmax on BRAF V600E (setting [2]), at BRAF G466V (setting [4]), on BRAF G469A (setting [6]) and at BRAF D594G (setting [8]) was > 70% in each case.

Take `CCCS(=O)(=O)Nc1cccc(-c2nc(C(C)(C)C3CCN(C(=O)C4CN(C5CCN(c6ccc7c(c6)C(=O)N(C6CCC(=O)NC6=O)C7=O)CC5)C4)CC3)sc2-c2ccnc(N)n2)c1F` (racemic) [Compound 243, Rac-N-{3-[5-(2-aminopyrimidin-4-yl)-2-(2-{1-[1-(1-{2-[(3R)-2,6-dioxopiperidin-3-yl]-1,3-dioxo-2,3-dihydro-1H-isoindol-5-yl}piperidin-4-yl)azetidine-3-carbonyl]piperidin-4-yl}propan-2-yl)-1,3-thiazol-4-yl]-2-fluorophenyl}propane-1-sulfonamide]: the DC50 is 50 to 500 nM on BRAF V600E (setting [9]), > 500 nM on BRAF G466V (setting [11]), > 500 nM on BRAF G469A (setting [13]) and > 500 nM at BRAF D594G (setting [15]). Also, the Dmax was 30 to 70% on BRAF V600E (setting [10]), < 30% at BRAF G466V (setting [12]), < 30% on BRAF G469A (setting [14]) and 30 to 70% on BRAF D594G (setting [16]).

For `CCCS(=O)(=O)Nc1cccc(-c2nc(C3CCN(C(=O)C4CCN(C(=O)C5CCN(c6ccc(C7CCC(=O)NC7=O)cn6)CC5)CC4)CC3)sc2-c2ccncc2)c1F` (racemic) [Compound 210, Rac-N-[3-(2-{1-[1-(1-{5-[(3R)-2,6-dioxopiperidin-3-yl]pyridin-2-yl}piperidine-4-carbonyl)piperidine-4-carbonyl]piperidin-4-yl}-5-(pyridin-4-yl)-1,3-thiazol-4-yl)-2-fluorophenyl]propane-1-sulfonamide], the DC50 at BRAF V600E (setting [9]) is < 10 nM; at BRAF G466V (setting [11]), < 10 nM; at BRAF G469A (setting [13]) it was 50 to 500 nM; at BRAF D594G (setting [15]) it was < 10 nM. Also, the Dmax is > 70% on BRAF V600E (setting [10]), 30 to 70% on BRAF G466V (setting [12]), 30 to 70% at BRAF G469A (setting [14]) and 30 to 70% at BRAF D594G (setting [16]).

For the origin of these results see patent US20260317324A1, “BIFUNCTIONAL COMPOUNDS FOR DEGRADING BRAF VIA UBIQUITIN PROTEOSOME PATHWAY” (Nurix Therapeutics, Inc., priority 2023, published 2026).
